Measurements from PubChem BioAssay AID256 (DTP/NCI, 2004).
Toxic doses and inconclusive results are not listed. How the source made its calls: active means survival T/C of 150% or more; inactive means T/C below 125% in these data.

System: CD2F1 mice, L1210 leukemia ip, survival T/C
Test: NCI In Vivo Anticancer Drug Screen. Data for tumor model L1210 Leukemia (intraperitoneal) in CD2F1 (CDF1) mice
Details: higher = longer survival
Procedure, shortened: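 Implant tumor; dose compound or vehicle; measure endpoint in both groups; report treated divided by control.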

[1] = endpoint: mean survival time, dose: 75.0 mg/kg/injection, schedule: Q01DX001 (ip), vehicle: saline
[2] = endpoint: mean survival time, dose: 150.0 mg/kg/injection, schedule: Q01DX001 (ip), vehicle: saline
[3] = endpoint: mean survival time, dose: 300.0 mg/kg/injection, schedule: Q01DX001 (ip), vehicle: saline
[4] = endpoint: mean survival time, dose: 100.0 mg/kg/injection, schedule: Q04DX003 (ip), vehicle: saline with Tween-80
[5] = endpoint: mean survival time, dose: 200.0 mg/kg/injection, schedule: Q04DX003 (ip), vehicle: saline with Tween-80
[6] = endpoint: mean survival time, dose: 400.0 mg/kg/injection, schedule: Q04DX003 (ip), vehicle: saline with Tween-80
[7] = endpoint: mean survival time, dose: 100.0 mg/kg/injection, schedule: Q01DX009 (ip), vehicle: saline
[8] = endpoint: mean survival time, dose: 200.0 mg/kg/injection, schedule: Q01DX009 (ip), vehicle: saline
[9] = endpoint: mean survival time, dose: 100.0 mg/kg/injection, schedule: Q01DX009 (ip), vehicle: saline with Tween-80
[10] = endpoint: mean survival time, dose: 200.0 mg/kg/injection, schedule: Q01DX009 (ip), vehicle: saline with Tween-80
[11] = endpoint: mean survival time, dose: 400.0 mg/kg/injection, schedule: Q01DX009 (ip), vehicle: saline with Tween-80
[12] = endpoint: mean survival time, dose: 25.0 mg/kg/injection, schedule: Q04DX002 (ip), vehicle: saline with Tween-80
[13] = endpoint: mean survival time, dose: 50.0 mg/kg/injection, schedule: Q04DX002 (ip), vehicle: saline with Tween-80
[14] = endpoint: mean survival time, dose: 100.0 mg/kg/injection, schedule: Q01DX001 (ip), vehicle: saline with Tween-80
[15] = endpoint: mean survival time, dose: 200.0 mg/kg/injection, schedule: Q01DX001 (ip), vehicle: saline with Tween-80
[16] = endpoint: mean survival time, dose: 400.0 mg/kg/injection, schedule: Q01DX001 (ip), vehicle: saline with Tween-80
[17] = endpoint: mean survival time, dose: 100.0 mg/kg/injection, schedule: Q01DX009 (ip), vehicle: other
[18] = endpoint: mean survival time, dose: 200.0 mg/kg/injection, schedule: Q01DX009 (ip), vehicle: other

Measured: T/C

Cc1c2[nH]c(c1CCC(=O)O)/C=c1\[n-]/c(c(C)c1CCC(=O)O)=C\c1[n-]c(c(C)c1C(C)O)/C=c1\[nH]/c(c(C)c1C(C)O)=C\2.[Cl][Pt+2][Cl] (stereo not given)
inactive: endpoint: mean survival time, dose: 12.5 mg/kg/injection, schedule: Q04DX003 (ip), vehicle: Klucel (hydroxypropylcellulose) (HPC) 88 % of control | endpoint: mean survival time, dose: 25.0 mg/kg/injection, schedule: Q04DX003 (ip), vehicle: Klucel (hydroxypropylcellulose) (HPC) 90 % of control | endpoint: mean survival time, dose: 50.0 mg/kg/injection, schedule: Q04DX003 (ip), vehicle: Klucel (hydroxypropylcellulose) (HPC) 93 % of control | endpoint: mean survival time, dose: 100.0 mg/kg/injection, schedule: Q04DX003 (ip), vehicle: Klucel (hydroxypropylcellulose) (HPC) 88 % of control

O=C(O)C1CCC=CCC1
inactive: endpoint: mean survival time, dose: 100.0 mg/kg/injection, schedule: Q04DX003 (ip), vehicle: other 103 % of control | endpoint: mean survival time, dose: 200.0 mg/kg/injection, schedule: Q04DX003 (ip), vehicle: other 94 % of control | endpoint: mean survival time, dose: 400.0 mg/kg/injection, schedule: Q04DX003 (ip), vehicle: other 89 % of control

C=CCC1(C)C(OC(C)=O)/C(=C\c2ccco2)CC2(C)c3cc(OC)ccc3CCC21 (stereo not given)
inactive: endpoint: mean survival time, dose: 100.0 mg/kg/injection, schedule: Q01DX001 (ip), vehicle: saline 101 % of control | endpoint: mean survival time, dose: 200.0 mg/kg/injection, schedule: Q01DX001 (ip), vehicle: saline 96 % of control | endpoint: mean survival time, dose: 400.0 mg/kg/injection, schedule: Q01DX001 (ip), vehicle: saline 96 % of control

CO[C@@H]1C2=CC=CC=C[C@H]2n2c(=O)n(C)c(=O)n21
inactive: endpoint: median survival time, dose: 37.5 mg/kg/injection, schedule: Q01DX005 (ip), vehicle: other 95 % of control | endpoint: median survival time, dose: 75.0 mg/kg/injection, schedule: Q01DX005 (ip), vehicle: other 100 % of control | endpoint: median survival time, dose: 150.0 mg/kg/injection, schedule: Q01DX005 (ip), vehicle: other 95 % of control

C=C(CC)C1(C)C(=O)NC(=O)NC1=O
inactive: [1] 95 % of control | [2] 97 % of control | [3] 101 % of control

Cc1ccc(S(=O)C(c2ccccc2)C(c2ccccc2)C(C)O)cc1 (stereo not given)
inactive: [4] 90 % of control | [5] 94 % of control | [6] 90 % of control

NC(CCc1cc(O)ccc1O)C(=O)O (stereo not given)
inactive: [7] 98 % of control | [8] 98 % of control | endpoint: mean survival time, dose: 400.0 mg/kg/injection, schedule: Q01DX009 (ip), vehicle: saline 102 % of control

O=C1CCCCCCCCCCC1C(O)(C(F)(F)F)C(F)(F)F (stereo not given)
inactive: [9] 96 % of control | [4] 91 % of control | [10] 101 % of control | [5] 95 % of control | [11] 96 % of control | [6] 91 % of control

c1ccc(OCC2(N3CCCCC3)CCCC2)cc1
inactive: [12] 103 % of control | [13] 108 % of control

C=C1C(=O)OC2CC(C)C3C4OC4C(O)C3(C)C(O)C12 (stereo not given)
inactive: endpoint: median survival time, dose: 3.12 mg/kg/injection, schedule: Q01DX009 (ip), vehicle: saline 97 % of control | endpoint: median survival time, dose: 6.25 mg/kg/injection, schedule: Q01DX009 (ip), vehicle: saline 113 % of control | endpoint: median survival time, dose: 12.5 mg/kg/injection, schedule: Q01DX009 (ip), vehicle: saline 101 % of control | endpoint: median survival time, dose: 25.0 mg/kg/injection, schedule: Q01DX009 (ip), vehicle: saline 107 % of control | endpoint: median survival time, dose: 50.0 mg/kg/injection, schedule: Q01DX009 (ip), vehicle: saline 109 % of control | endpoint: median survival time, dose: 100.0 mg/kg/injection, schedule: Q01DX009 (ip), vehicle: saline 124 % of control

CC(C)NC(=S)NC1=CCNN1c1ccccc1
inactive: endpoint: mean survival time, dose: 100.0 mg/kg/injection, schedule: Q04DX002 (ip), vehicle: saline with Tween-80 100 % of control | endpoint: mean survival time, dose: 200.0 mg/kg/injection, schedule: Q04DX002 (ip), vehicle: saline with Tween-80 88 % of control | endpoint: mean survival time, dose: 400.0 mg/kg/injection, schedule: Q04DX002 (ip), vehicle: saline with Tween-80 88 % of control

Nc1nnnn1-c1cccc(Cl)c1
inactive: [9] 96 % of control | [10] 102 % of control | [11] 106 % of control

COC(CCCl)c1ccc(Cl)cc1 (stereo not given)
inactive: endpoint: mean survival time, dose: 50.0 mg/kg/injection, schedule: Q01DX009 (ip), vehicle: saline 96 % of control | [7] 96 % of control | [4] 96 % of control | [8] 98 % of control | [5] 87 % of control

O=Cc1ccc(OCCCOc2ccc([N+](=O)[O-])cc2)cc1
inactive: endpoint: mean survival time, dose: 100.0 mg/kg/injection, schedule: Q04DX002 (ip), vehicle: Klucel (hydroxypropylcellulose) (HPC) 102 % of control | endpoint: mean survival time, dose: 200.0 mg/kg/injection, schedule: Q04DX002 (ip), vehicle: Klucel (hydroxypropylcellulose) (HPC) 94 % of control | endpoint: mean survival time, dose: 400.0 mg/kg/injection, schedule: Q04DX002 (ip), vehicle: Klucel (hydroxypropylcellulose) (HPC) 102 % of control

Cc1ccc(N=Nc2c(N)nc(N)[nH]c2=O)cc1C
inactive: [9] 97 % of control | [10] 97 % of control | [11] 99 % of control

Cc1ccc(C(=O)C2OC2c2ccccc2)cc1 (stereo not given)
inactive: [14] 94 % of control | [15] 100 % of control | [16] 94 % of control

COc1ccc(Cc2nnc(Cc3ccc(OC)c(OC)c3)nn2)cc1OC
inactive: [4] 101 % of control | [5] 93 % of control

Cc1ccc(S(=O)(=O)OCC2CC3CCC2C3)cc1 (stereo not given)
inactive: [17] 102 % of control | [18] 102 % of control | endpoint: mean survival time, dose: 400.0 mg/kg/injection, schedule: Q01DX009 (ip), vehicle: other 93 % of control

O=C(/C=C/c1ccc(Cl)cc1)c1ccc(Cl)cc1
inactive: [4] 98 % of control | [5] 90 % of control | [6] 93 % of control

O=C(O)C/C=C/Br
inactive: [1] 100 % of control | [2] 100 % of control

Cc1ccc([N+](=O)[O-])c2ccccc12
inactive: [9] 91 % of control | [4] 88 % of control | [10] 91 % of control | [5] 90 % of control | [11] 95 % of control | [6] 94 % of control

CCCCCCCCCCCCCCCCOc1ccc(S(=O)(=O)NC(C)(C)C)cc1N
inactive: [4] 96 % of control | [5] 93 % of control | [6] 95 % of control

CN(C)c1ccc2c(c1)Oc1cc(N(C)C)ccc1C21OC(=O)c2ccccc21
inactive: [14] 97 % of control | [15] 101 % of control | [16] 97 % of control

CCCCN(C)CCNc1cc(C)nc(/N=C(\N)Nc2ccc(Cl)c(Cl)c2)n1
inactive: endpoint: mean survival time, dose: 75.0 mg/kg/injection, schedule: Q01DX001 (ip), vehicle: other 97 % of control

O=C1CSC1=C(c1ccccc1)c1ccccc1
inactive: endpoint: mean survival time, dose: 12.5 mg/kg/injection, schedule: Q04DX002 (ip), vehicle: saline with Tween-80 94 % of control | [12] 94 % of control | [13] 94 % of control

NC1=NC(=S)CS1
inactive: [1] 95 % of control | [2] 95 % of control | [3] 87 % of control

Cc1cccc(NC(=S)NC(=O)c2ccccc2)n1
inactive: endpoint: mean survival time, dose: 12.5 mg/kg/injection, schedule: Q01DX009 (ip), vehicle: other 91 % of control | endpoint: mean survival time, dose: 25.0 mg/kg/injection, schedule: Q01DX009 (ip), vehicle: other 92 % of control | endpoint: mean survival time, dose: 50.0 mg/kg/injection, schedule: Q01DX009 (ip), vehicle: other 88 % of control | [17] 88 % of control | [18] 91 % of control

CCOC1C=CCCC1 (stereo not given)
inactive: [9] 95 % of control | [4] 97 % of control | [10] 95 % of control | [5] 93 % of control | [6] 97 % of control
